Data published in patent publication US10131657B2, “Bromodomain inhibitors” (AbbVie Inc., priority 2013, dated 2018).

tested on: breast cancer cell line MX-1; assay: MX-1 cell line proliferation assay, Method A; format: cell-based; conditions: Homo sapiens, MX1; MX-1 cells, 96-well, 72 hours, Cell Titer Glo; read-out: Cellular proliferation: EC50 Method A
Experimental: The impact of compounds of the Examples on cancer cell proliferation was determined using the breast cancer cell line MX-1 (ATCC) in a 3-day proliferation assay and the data are reported in Table 1.
MX-1 cells were maintained in RPMI 1640 medium (Sigma) supplemented with 10% FBS at 37° C. and an atmosphere of 5% CO2. For compound testing, MX-1 cells were plated in 96-well black bottom plates at a density of 5000 cells/well in 90 μL of culture media and incubated at 370 overnight to allow cell adhesion and spreading. Compound dilution series were prepared in DMSO via a 3-fold serial dilution from 3 mM to 0.1 μM. The DMSO dilution series were then diluted 1:100 in phosphate buffered saline, and 10 μL of the resulted solution were added to the appropriate wells of the MX-1 cell plate. The final compound concentrations in the wells were 3, 1, 0.3, 0.1, 0.03, 0.01, 0.003, 0.001, 0.0003 and 0.0001 μM.
Luminescence readings from the Cell Titer Glo assay were normalized to the DMSO treated cells and analyzed using the GraphPad Prism software with sigmoidal curve fitting to obtain ECs50s. The minimum significant ratio (MSR) was determined to evaluate assay reproducibility (Eastwood et al., (2006) J Biomol Screen, 11: 253-261).

Row | Compound | EC50
1 | Cn1cc(-c2cc(S(C)(=O)=O)ccc2Oc2cccc(NS(=O)(=O)c3ccc(F)cc3Cl)c2)c2cc[nH]c2c1=O [Example 58] | 152 nM
2 | Cn1cc(-c2cc(S(C)(=O)=O)ccc2Oc2cccc(NCc3ccc(C#N)cc3)c2)c2cc[nH]c2c1=O [Example 61, 4-[({3-[2-(6-methyl-7-oxo-6,7-dihydro-1H-pyrrolo[2,3-c]pyridin-4-yl)-4-(methylsulfonyl)phenoxy]phenyl}amino)methyl]benzonitrile] | 43 nM
3 | COc1cccc(CNc2cccc(Oc3ccc(S(C)(=O)=O)cc3-c3cn(C)c(=O)c4[nH]ccc34)c2)c1 [Example 66, 4-[2-{3-[(3-methoxybenzyl)amino]phenoxy}-5-(methylsulfonyl)phenyl]-6-methyl-1,6-dihydro-7H-pyrrolo[2,3-c]pyridin-7-one] | 54.7 nM
4 | Cn1cc(-c2cc(S(C)(=O)=O)ccc2Oc2cccc(NCc3cc(F)cc(F)c3)c2)c2cc[nH]c2c1=O [Example 73, 4-[2-{3-[(3,5-difluorobenzyl)amino]phenoxy}-5-(methylsulfonyl)phenyl]-6-methyl-1,6-dihydro-7H-pyrrolo[2,3-c]pyridin-7-one] | 62.4 nM
5 | CN(C)c1cccc(CNc2cccc(Oc3ccc(S(C)(=O)=O)cc3-c3cn(C)c(=O)c4[nH]ccc34)c2)c1 [Example 75, 4-[2-(3-{[3-(dimethylamino)benzyl]amino}phenoxy)-5-(methylsulfonyl)phenyl]-6-methyl-1,6-dihydro-7H-pyrrolo[2,3-c]pyridin-7-one] | 112 nM
6 | Cn1cc(-c2cc(S(C)(=O)=O)ccc2Oc2cccc(NCc3ccc4c(c3)OCCO4)c2)c2cc[nH]c2c1=O [Example 76, 4-[2-{3-[(2,3-dihydro-1,4-benzodioxin-6-ylmethyl)amino]phenoxy}-5-(methylsulfonyl)phenyl]-6-methyl-1,6-dihydro-7H-pyrrolo[2,3-c]pyridin-7-one] | 49.9 nM
7 | CCS(=O)(=O)c1ccc(Oc2ccc(Cl)cc2C#CCN2CCOCC2)c(-c2cn(C)c(=O)c3[nH]ccc23)c1 [Example 82, 4-[2-{4-chloro-2-[3-(morpholin-4-yl)prop-1-yn-1-yl]phenoxy}-5-(ethylsulfonyl)phenyl]-6-methyl-1,6-dihydro-7H-pyrrolo[2,3-c]pyridin-7-one] | 221 nM
8 | CCS(=O)(=O)c1ccc(Oc2ccc(Cl)cc2CCCN2CCOCC2)c(-c2cn(C)c(=O)c3[nH]ccc23)c1 [Example 83, 4-[2-{4-chloro-2-[3-(morpholin-4-yl)propyl]phenoxy}-5-(ethylsulfonyl)phenyl]-6-methyl-1,6-dihydro-7H-pyrrolo[2,3-c]pyridin-7-one] | 89.9 nM
9 | CN(C)CC(=O)N1CCC(Nc2ccc(S(C)(=O)=O)cc2-c2cn(C)c(=O)c3[nH]ccc23)CC1 [Example 85, 4-[2-({1-[(dimethylamino)acetyl]piperidin-4-yl}amino)-5-(methylsulfonyl)phenyl]-6-methyl-1,6-dihydro-7H-pyrrolo[2,3-c]pyridin-7-one] | > 1000 nM
10 | CC(=O)Nc1ccc(CN2CCC(Nc3ccc(S(C)(=O)=O)cc3-c3cn(C)c(=O)c4[nH]ccc34)CC2)cc1 [Example 87, N-{4-[(4-{[2-(6-methyl-7-oxo-6,7-dihydro-1H-pyrrolo[2,3-c]pyridin-4-yl)-4-(methylsulfonyl)phenyl]amino}piperidin-1-yl)methyl]phenyl}acetamide] | 325 nM
11 | Cn1cc(-c2cc(S(C)(=O)=O)ccc2N[C@H]2CC[C@H](NCc3cccs3)CC2)c2cc[nH]c2c1=O [Example 107, 6-methyl-4-[5-(methylsulfonyl)-2-({trans-4-[(thiophen-2-ylmethyl)amino]cyclohexyl}amino)phenyl]-1,6-dihydro-7H-pyrrolo[2,3-c]pyridin-7-one] | 23.5 nM
12 | CC(=O)Nc1ccc(CN[C@H]2CC[C@H](Nc3ccc(S(C)(=O)=O)cc3-c3cn(C)c(=O)c4[nH]ccc34)CC2)cc1 [Example 108, N-(4-{[(trans-4-{[2-(6-methyl-7-oxo-6,7-dihydro-1H-pyrrolo[2,3-c]pyridin-4-yl)-4-(methylsulfonyl)phenyl]amino}cyclohexyl)amino]methyl}phenyl)acetamide] | 299 nM
13 | Cn1cc(-c2cc(S(C)(=O)=O)ccc2N[C@H]2CC[C@H](NCc3ccc4ccccc4c3)CC2)c2cc[nH]c2c1=O [Example 110, 6-methyl-4-[5-(methylsulfonyl)-2-({trans-4-[(naphthalen-2-ylmethyl)amino]cyclohexyl}amino)phenyl]-1,6-dihydro-7H-pyrrolo[2,3-c]pyridin-7-one] | 10.4 nM

Second part, the compound after the results:

Row | EC50 | Compound
14 | 64.1 nM | Cn1cc(-c2cc(S(C)(=O)=O)ccc2Oc2cccc(NCc3cccc(C#N)c3)c2)c2cc[nH]c2c1=O [Example 60, 3-[({3-[2-(6-methyl-7-oxo-6,7-dihydro-1H-pyrrolo[2,3-c]pyridin-4-yl)-4-(methylsulfonyl)phenoxy]phenyl}amino)methyl]benzonitrile]
15 | 51.1 nM | Cn1cc(-c2cc(S(C)(=O)=O)ccc2Oc2cccc(NCc3ccc(F)cc3)c2)c2cc[nH]c2c1=O [Example 62, 4-[2-{3-[(4-fluorobenzyl)amino]phenoxy}-5-(methylsulfonyl)phenyl]-6-methyl-1,6-dihydro-7H-pyrrolo[2,3-c]pyridin-7-one]
16 | 52.6 nM | COCCNc1cccc(Oc2ccc(S(C)(=O)=O)cc2-c2cn(C)c(=O)c3[nH]ccc23)c1 [Example 64, 4-[2-{3-[(2-methoxyethyl)amino]phenoxy}-5-(methylsulfonyl)phenyl]-6-methyl-1,6-dihydro-7H-pyrrolo[2,3-c]pyridin-7-one]
17 | 40 nM | Cn1cc(-c2cc(S(C)(=O)=O)ccc2Oc2cccc(NCC3CCCO3)c2)c2cc[nH]c2c1=O (stereo not drawn) [Example 65, 6-methyl-4-[5-(methylsulfonyl)-2-{3-[(tetrahydrofuran-2-ylmethyl)amino]phenoxy}phenyl]-1,6-dihydro-7H-pyrrolo[2,3-c]pyridin-7-one]
18 | 50.6 nM | Cn1cc(-c2cc(S(C)(=O)=O)ccc2Oc2cccc(NCc3ccccc3F)c2)c2cc[nH]c2c1=O [Example 67, 4-[2-{3-[(2-fluorobenzyl)amino]phenoxy}-5-(methylsulfonyl)phenyl]-6-methyl-1,6-dihydro-7H-pyrrolo[2,3-c]pyridin-7-one]
19 | 93.3 nM | Cn1cc(-c2cc(S(C)(=O)=O)ccc2Oc2cccc(NCc3cccc(OC(F)(F)F)c3)c2)c2cc[nH]c2c1=O [Example 69, 6-methyl-4-[5-(methylsulfonyl)-2-(3-{[3-(trifluoromethoxy)benzyl]amino}phenoxy)phenyl]-1,6-dihydro-7H-pyrrolo[2,3-c]pyridin-7-one]
20 | 45.1 nM | CN(C)CCCOc1ccc(CNc2cccc(Oc3ccc(S(C)(=O)=O)cc3-c3cn(C)c(=O)c4[nH]ccc34)c2)cc1 [Example 74, 4-{2-[3-({4-[3-(dimethylamino)propoxy]benzyl}amino)phenoxy]-5-(methylsulfonyl)phenyl}-6-methyl-1,6-dihydro-7H-pyrrolo[2,3-c]pyridin-7-one]
21 | 69.2 nM | Cn1cc(-c2cc(S(C)(=O)=O)ccc2Oc2cccc(NCC3CCOC3)c2)c2cc[nH]c2c1=O (stereo not drawn) [Example 77, 6-methyl-4-[5-(methylsulfonyl)-2-{3-[(tetrahydrofuran-3-ylmethyl)amino]phenoxy}phenyl]-1,6-dihydro-7H-pyrrolo[2,3-c]pyridin-7-one]
22 | 128 nM | Cn1cc(-c2cc(S(C)(=O)=O)ccc2Oc2cccc(NCC3CC3)c2)c2cc[nH]c2c1=O [Example 80, 4-[2-{3-[(cyclopropylmethyl)amino]phenoxy}-5-(methylsulfonyl)phenyl]-6-methyl-1,6-dihydro-7H-pyrrolo[2,3-c]pyridin-7-one]
23 | 87.8 nM | Cn1cc(-c2cc(S(C)(=O)=O)ccc2NC2CCN(S(=O)(=O)c3ccccc3)CC2)c2cc[nH]c2c1=O [Example 84, 6-methyl-4-[5-(methylsulfonyl)-2-{[1-(phenylsulfonyl)piperidin-4-yl]amino}phenyl]-1,6-dihydro-7H-pyrrolo[2,3-c]pyridin-7-one]
24 | > 1000 nM | CN1CCN(CC(=O)N2CCC(Nc3ccc(S(C)(=O)=O)cc3-c3cn(C)c(=O)c4[nH]ccc34)CC2)CC1 [Example 96, 6-methyl-4-[2-({1-[(4-methylpiperazin-1-yl)acetyl]piperidin-4-yl}amino)-5-(methylsulfonyl)phenyl]-1,6-dihydro-7H-pyrrolo[2,3-c]pyridin-7-one]
25 | 72.9 nM | Cn1cc(-c2cc(S(C)(=O)=O)ccc2NC2CCN(S(=O)(=O)Cc3ccccc3)CC2)c2cc[nH]c2c1=O [Example 101, 4-[2-{[1-(benzylsulfonyl)piperidin-4-yl]amino}-5-(methylsulfonyl)phenyl]-6-methyl-1,6-dihydro-7H-pyrrolo[2,3-c]pyridin-7-one]
26 | 176 nM | COc1ccc(S(=O)(=O)N2CCC(Nc3ccc(S(C)(=O)=O)cc3-c3cn(C)c(=O)c4[nH]ccc34)CC2)cc1 [Example 104, 4-[2-({1-[(4-methoxyphenyl)sulfonyl]piperidin-4-yl}amino)-5-(methylsulfonyl)phenyl]-6-methyl-1,6-dihydro-7H-pyrrolo[2,3-c]pyridin-7-one]
27 | 18.1 nM | Cn1cc(-c2cc(S(C)(=O)=O)ccc2N[C@H]2CC[C@H](NCc3ccc(F)cc3F)CC2)c2cc[nH]c2c1=O [Example 109, 4-[2-({trans-4-[(2,4-difluorobenzyl)amino]cyclohexyl}amino)-5-(methylsulfonyl)phenyl]-6-methyl-1,6-dihydro-7H-pyrrolo[2,3-c]pyridin-7-one]
